Laboratory results: patent US9833497B2, “Human originated EGF domain proteins and use of the same” (CHENGDU SOURCEBIO LIMITED-LIABILITY COMPANY, priority 2013, dated 2017)

Key:
Format in all cases: cell-based
E. coli BL21 = assay: MIC against Gram-negative bacteria: E. coli BL21; details: 5×10^5 CFU/mL
In short: (§1)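 Bacteria grown in LB at 37° C to McFarland 0.5, resuspended and seeded at 5×10^5 CFU/mL in 96-well plates. Purified human EGF-domain proteins two-fold serially diluted, triplicate wells; cultured at 37° C, shaking 175 rpm. MIC = lowest protein concentration with no growth.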

Pseudomonas aeruginosa = assay: MIC against Gram-negative bacteria: Pseudomonas aeruginosa; details: 5×10^5 CFU/mL
In short: as §1

Aeromonas hydrophila = assay: MIC against Gram-negative bacteria: Aeromonas hydrophila; details: 5×10^5 CFU/mL
In short: as §1

Proteus mirabilis = assay: MIC against Gram-negative bacteria: Proteus mirabilis; details: 5×10^5 CFU/mL
In short: as §1

Enterobacter cloacae = assay: MIC against Gram-negative bacteria: Enterobacter cloacae; details: 5×10^5 CFU/mL
In short: as §1

Moraxella catarrhalis = assay: MIC against Gram-negative bacteria: Moraxella catarrhalis; details: 5×10^5 CFU/mL
In short: as §1

E. coli DH5α = assay: Antibacterial activity: MIC and growth curve against E. coli DH5α in 96-well plate; details: minimal inhibitory concentration against E. coli DH5α; 96-well plate, 5×10^5 CFU/mL, 37° C., judged after 8 h
In short: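 MIC taken as lowest protein level with no bacterial growth, tracked by A600 every 30 min during 37 °C, 175 rpm culture. Two-fold protein series 50-12.5 μg/mL final, triplicate wells, against 5×10^5 CFU/mL of LB-washed mid-log cells.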

Klebsiella pneumonia = assay: MIC against Gram-negative bacteria: Klebsiella pneumonia; details: 5×10^5 CFU/mL
In short: as §1

Citrobacter diversus = assay: MIC against Gram-negative bacteria: Citrobacter diversus; details: 5×10^5 CFU/mL
In short: as §1

Serratia marcescens = assay: MIC against Gram-negative bacteria: Serratia marcescens; details: 5×10^5 CFU/mL
In short: as §1

Proteus vulgaris = assay: MIC against Gram-negative bacteria: Proteus vulgaris; details: 5×10^5 CFU/mL
In short: as §1

[1] = E. coli BL21, 10 h cultivation at 37° C.
[2] = P. aeruginosa, 10 h cultivation at 37° C.
[3] = A. hydrophila, 10 h cultivation at 37° C.
[4] = P. mirabilis, 10 h cultivation at 37° C.
[5] = E. cloacae, 10 h cultivation at 37° C.
[6] = M. catarrhalis, 10 h cultivation at 37° C.
[7] = K. pneumonia, 10 h cultivation at 37° C.
[8] = C. diversus, 10 h cultivation at 37° C.
[9] = S. marcescens, 10 h cultivation at 37° C.
[10] = P. vulgaris, 10 h cultivation at 37° C.

Substance: PRT716 (TEYTCEDNVNPCGDDAYCNQIKTSVFCRCKPGFQRNMKNRQCE; listed as Homo sapiens)
- MIC E. coli BL21 (E. coli BL21; 96-well plate, 37° C., 10 h): 50 µg/mL
- MIC P. aeruginosa (Pseudomonas aeruginosa; 96-well plate, 37° C., 10 h): 25 µg/mL
- MIC A. hydrophila (Aeromonas hydrophila; 96-well plate, 37° C., 10 h): 50 µg/mL
- MIC P. mirabilis (Proteus mirabilis; 96-well plate, 37° C., 10 h): 25 µg/mL
- MIC E. cloacae (Enterobacter cloacae; 96-well plate, 37° C., 10 h): 25 µg/mL
- MIC M. catarrhalis (Moraxella catarrhalis; 96-well plate, 37° C., 10 h): 12.5 µg/mL
- MIC (E. coli DH5α): 25 µg/mL
- MIC K. pneumonia (Klebsiella pneumonia; 96-well plate, 37° C., 10 h): 12.5 µg/mL
- MIC C. diversus (Citrobacter diversus; 96-well plate, 37° C., 10 h): 25 µg/mL
- MIC S. marcescens (Serratia marcescens; 96-well plate, 37° C., 10 h): 12.5 µg/mL
- MIC P. vulgaris (Proteus vulgaris; 96-well plate, 37° C., 10 h): 50 µg/mL

Substance: PRT453 (DINECEQFGTCPQHCRNTKGSYECVCADGFT; listed as Homo sapiens)
- MIC against E. coli BL21 (E. coli BL21; 96-well plate, 37° C., 10 h): 12.5 µg/mL
- MIC against P. aeruginosa (Pseudomonas aeruginosa; 96-well plate, 37° C., 10 h): 25 µg/mL
- MIC against A. hydrophila (Aeromonas hydrophila; 96-well plate, 37° C., 10 h): 12.5 µg/mL
- MIC against P. mirabilis (Proteus mirabilis; 96-well plate, 37° C., 10 h): 25 µg/mL
- MIC against E. cloacae (Enterobacter cloacae; 96-well plate, 37° C., 10 h): 25 µg/mL
- MIC against M. catarrhalis (Moraxella catarrhalis; 96-well plate, 37° C., 10 h): 50 µg/mL
- MIC (E. coli DH5α): 25 µg/mL
- MIC against K. pneumonia (Klebsiella pneumonia; 96-well plate, 37° C., 10 h): 50 µg/mL
- MIC against C. diversus (Citrobacter diversus; 96-well plate, 37° C., 10 h): 25 µg/mL
- MIC against S. marcescens (Serratia marcescens; 96-well plate, 37° C., 10 h): 25 µg/mL
- MIC against P. vulgaris (Proteus vulgaris; 96-well plate, 37° C., 10 h): 12.5 µg/mL

Substance: PRT787 (RQICDCLNNSTCDHITGTCYCSPGWKGARCD; listed as Homo sapiens)
- MIC (μg/mL) E. coli BL21 (E. coli BL21; [1]): 12.5 µg/mL
- MIC (μg/mL) P. aeruginosa (Pseudomonas aeruginosa; [2]): 12.5 µg/mL
- MIC (μg/mL) A. hydrophila (Aeromonas hydrophila; [3]): 12.5 µg/mL
- MIC (μg/mL) P. mirabilis (Proteus mirabilis; [4]): 25 µg/mL
- MIC (μg/mL) E. cloacae (Enterobacter cloacae; [5]): 12.5 µg/mL
- MIC (μg/mL) M. catarrhalis (Moraxella catarrhalis; [6]): 50 µg/mL
- MIC (E. coli DH5α): 12.5 µg/mL
- MIC (μg/mL) K. pneumonia (Klebsiella pneumonia; [7]): 12.5 µg/mL
- MIC (μg/mL) C. diversus (Citrobacter diversus; [8]): 25 µg/mL
- MIC (μg/mL) S. marcescens (Serratia marcescens; [9]): 12.5 µg/mL
- MIC (μg/mL) P. vulgaris (Proteus vulgaris; [10]): 25 µg/mL

Substance: PRT1268 (CAVNNGGCDRTCKDTSTGVHCSCPVGFTLQLDGKTC; listed as Homo sapiens)
- MIC against E. coli BL21 (E. coli BL21; E. coli BL21, 96-well plate, 37° C., 10 h): 12.5 µg/mL
- MIC against P. aeruginosa (Pseudomonas aeruginosa; Pseudomonas aeruginosa, 96-well plate, 37° C., 10 h): 50 µg/mL
- MIC against A. hydrophila (Aeromonas hydrophila; Aeromonas hydrophila, 96-well plate, 37° C., 10 h): 50 µg/mL
- MIC against P. mirabilis (Proteus mirabilis; Proteus mirabilis, 96-well plate, 37° C., 10 h): 12.5 µg/mL
- MIC against E. cloacae (Enterobacter cloacae; Enterobacter cloacae, 96-well plate, 37° C., 10 h): 25 µg/mL
- MIC against M. catarrhalis (Moraxella catarrhalis; Moraxella catarrhalis, 96-well plate, 37° C., 10 h): 50 µg/mL
- MIC (E. coli DH5α): 50 µg/mL
- MIC against K. pneumonia (Klebsiella pneumonia; Klebsiella pneumonia, 96-well plate, 37° C., 10 h): 12.5 µg/mL
- MIC against C. diversus (Citrobacter diversus; Citrobacter diversus, 96-well plate, 37° C., 10 h): 12.5 µg/mL
- MIC against S. marcescens (Serratia marcescens; Serratia marcescens, 96-well plate, 37° C., 10 h): 50 µg/mL
- MIC against P. vulgaris (Proteus vulgaris; Proteus vulgaris, 96-well plate, 37° C., 10 h): 25 µg/mL

Substance: PRT1403 (SVVECPRNCHGNGECVSGTCHCFPGFLGPDCS; listed as Homo sapiens)
- MIC against E. coli BL21 (E. coli BL21; [1]): 12.5 µg/mL
- MIC against P. aeruginosa (Pseudomonas aeruginosa; Pseudomonas aeruginosa, 10 h cultivation at 37° C.): 50 µg/mL
- MIC against A. hydrophila (Aeromonas hydrophila; Aeromonas hydrophila, 10 h cultivation at 37° C.): 25 µg/mL
- MIC against P. mirabilis (Proteus mirabilis; Proteus mirabilis, 10 h cultivation at 37° C.): 50 µg/mL
- MIC against E. cloacae (Enterobacter cloacae; Enterobacter cloacae, 10 h cultivation at 37° C.): 25 µg/mL
- MIC against M. catarrhalis (Moraxella catarrhalis; Moraxella catarrhalis, 10 h cultivation at 37° C.): 12.5 µg/mL
- MIC (E. coli DH5α): 50 µg/mL
- MIC against K. pneumonia (Klebsiella pneumonia; Klebsiella pneumonia, 10 h cultivation at 37° C.): 12.5 µg/mL
- MIC against C. diversus (Citrobacter diversus; Citrobacter diversus, 10 h cultivation at 37° C.): 50 µg/mL
- MIC against S. marcescens (Serratia marcescens; Serratia marcescens, 10 h cultivation at 37° C.): 50 µg/mL
- MIC against P. vulgaris (Proteus vulgaris; Proteus vulgaris, 10 h cultivation at 37° C.): 12.5 µg/mL

Substance: PRT543 (CGCHEVGATGPTCEPFGGQCPCHAHVIGRDCSRCATGYWGFPNCRP; listed as Homo sapiens)
- MIC against E. coli BL21 (E. coli BL21; 96-well plate, 37° C., 10 h): 50 µg/mL
- MIC against P. aeruginosa (Pseudomonas aeruginosa; 96-well plate, 37° C., 10 h): 12.5 µg/mL
- MIC against A. hydrophila (Aeromonas hydrophila; 96-well plate, 37° C., 10 h): 50 µg/mL
- MIC against P. mirabilis (Proteus mirabilis; 96-well plate, 37° C., 10 h): 25 µg/mL
- MIC against E. cloacae (Enterobacter cloacae; 96-well plate, 37° C., 10 h): 12.5 µg/mL
- MIC against M. catarrhalis (Moraxella catarrhalis; 96-well plate, 37° C., 10 h): 12.5 µg/mL
- MIC (E. coli DH5α): 12.5 µg/mL
- MIC against K. pneumonia (Klebsiella pneumonia; 96-well plate, 37° C., 10 h): 50 µg/mL
- MIC against C. diversus (Citrobacter diversus; 96-well plate, 37° C., 10 h): 25 µg/mL
- MIC against S. marcescens (Serratia marcescens; 96-well plate, 37° C., 10 h): 25 µg/mL
- MIC against P. vulgaris (Proteus vulgaris; 96-well plate, 37° C., 10 h): 50 µg/mL

Substance: PRT403 (DNDECSAQPGPCGAHGHCHNTPGSFRCECHQGFTLVSSGHGCE; listed as Homo sapiens)
- MIC (E. coli BL21; [1]): 25 µg/mL
- MIC (Pseudomonas aeruginosa; [2]): 50 µg/mL
- MIC (Aeromonas hydrophila; [3]): 25 µg/mL
- MIC (Proteus mirabilis; [4]): 12.5 µg/mL
- MIC (Enterobacter cloacae; [5]): 12.5 µg/mL
- MIC (Moraxella catarrhalis; [6]): 25 µg/mL
- MIC (E. coli DH5α): 12.5 µg/mL
- MIC (Klebsiella pneumonia; [7]): 25 µg/mL
- MIC (Citrobacter diversus; [8]): 50 µg/mL
- MIC (Serratia marcescens; [9]): 50 µg/mL
- MIC (Proteus vulgaris; [10]): 25 µg/mL
